Reference: patent publication US20060178359A1, “Tricyclic compound, process for producing the same, and use” (priority 2003, published 2006)

These molecules were tested against T1, human CCR5 (Homo sapiens, UniProt P51681) (assay: inhibition of [125I]-RANTES binding to CCR5/CHO cells). Settings: test compound 1 μM, 100 pM [125I]-RANTES, room temperature, 40 minutes.
T1 construct: expressed in transfected cells
T1 sequence (P51681 whole entry): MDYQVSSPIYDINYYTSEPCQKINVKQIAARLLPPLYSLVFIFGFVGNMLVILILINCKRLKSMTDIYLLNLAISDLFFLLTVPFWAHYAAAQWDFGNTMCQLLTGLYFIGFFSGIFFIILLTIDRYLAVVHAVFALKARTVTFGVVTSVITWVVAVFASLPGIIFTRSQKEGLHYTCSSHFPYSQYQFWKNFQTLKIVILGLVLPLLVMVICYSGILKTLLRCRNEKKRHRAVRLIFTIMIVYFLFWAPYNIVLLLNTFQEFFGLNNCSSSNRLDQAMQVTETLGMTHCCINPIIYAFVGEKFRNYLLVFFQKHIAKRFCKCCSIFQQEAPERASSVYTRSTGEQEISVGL
Method: (1) Cloning of Human CCR5 Chemokine Receptor
Cloning of a CCR5 gene was conducted from human spleen cDNA by a PCR method. Using 0.5 ng of spleen cDNA (Toyobo Co., Ltd., QUICK-Clone cDNA) as a template, the PCR reaction was carried out in a DNA Thermal Cycler 480 (Perkin Elmer) using a TaKaRa EX Taq (Takara Shuzo Co., Ltd.) (reaction conditions: 30 cycles of treatments at 95° C. for 1 minute, at 60° C. for 1 minute, and at 75° C. for 5 minutes) by adding 25 pmol of primers, SEQ ID NO. 1 (sequence length: 34; sequence type: nucleic acid; number of chains: a single chain; topology: linear; sequence kind: other nucleic acid, synthetic DNA) described in Experimental Example (1) of WO 99/32100, and SEQ ID NO. 2 (sequence length: 34; sequence type: nucleic acid; number of chains: a single chain; topology: linear; sequence kind: other nucleic acid, synthetic DNA) described in Experimental Example (1) of WO 99/32100, respectively, which were prepared by referring to the base sequence of the CCR5 gene described by Samson et al. (Biochemistry 35 (11), 3362-3367 (1996)). The PCR products were subjected to agarose gel electrophoresis to collect DNA fragments of about 1.0 kb. Then, the CCR5 gene was cloned using an Original TA Cloning Kit (Funakoshi Co., Ltd.).
(2) Preparation of Plasmid for Expression of Human CCR5
The plasmids obtained above were digested with restriction enzymes XbaI (Takara Shuzo Co., Ltd.) and BamHI (Takara Shuzo Co., Ltd.), and subjected to agarose gel electrophoresis to collect DNA fragments of about 1.0 kb. The DNA fragments and a plasmid pcDNA3.1 (Funakoshi Co., Ltd.) for expression in animal cells, which was previously digested with XbaI and BamHI, were mixed and ligated by DNA Ligation Kit Ver. 2 (Takara Shuzo Co., Ltd.). Transformation of E. coli JM109 competent cells (Takara Shuzo Co., Ltd.) gave plasmid pCKR5.
(3) Introduction of the Plasmid for Expression of Human CCR5 into CHO-K1 Cells and Expression Thereof
CHO-K1 cells grown in a 750 ml tissue culture flask (Becton Dickinson) using Ham's F12 medium (Nihon Pharmaceutical Co., Ltd.) containing 10% fetal bovine serum (Lifetech Oriental) were collected from the flask by using 0.5 g/L trypsin-0.2 g/L EDTA (Lifetech Oriental). The cells were then washed with PBS (Lifetech Oriental), centrifuged (1000 rpm, 5 minutes), and suspended in PBS. Next, DNA was introduced into the cells using Gene Pulser (Bio-Rad Laboratories Inc.) under the following conditions. Namely, 8×10^6 cells and 10 μg of plasmid pCKR5 for expression of human CCR5 were added into a cuvette of a 0.4 cm-gap, and electroporation was carried out at an electric voltage of 0.25 kV and a capacitance of 960 μF. Subsequently, the cells were transferred into Ham's F12 medium containing 10% fetal bovine serum, and incubated for 24 hours. The cells were again collected, centrifuged, and then suspended in Ham's F12 medium containing 10% fetal bovine serum and Geneticin (Lifetech Oriental) at a concentration of 500 μg/ml. The suspension of cells was diluted to a concentration of 10^4 cells/ml, and inoculated on a 96-well plate (Becton Dickinson) to give Geneticin-resistant strains.
Subsequently, the Geneticin-resistant strains were cultured in the 96-well plate (Becton Dickinson), and then CCR5-expressing cells were selected from the resistant strains. […] The cells to which the ligand bound specifically, i.e., CCR5/CHO strains, were selected by measurement of radioactivity by γ-counter. […]
In the case of CCCCOCCOc1ccc(-c2cnc3c(c2)C=C(C(=O)Nc2ccc([S@@+]([O-])Cc4cncn4CCC)cc2)CC[C@H]2CCCN32)cc1 [Compound 17, (8aS,Ss)-3-[4-(2-butoxyethoxy)phenyl]-N-[4-[[(1-propyl-1H-imidazol-5-yl)methyl]sulfinyl]phenyl]-7,8,8a,9,10,11-hexahydropyrido[3,2-g]pyrrolo[1,2-a]azocine-6-carboxamide], the “Binding Inhibitory Ratio (%)” value is reported as 98%.
For CCCCOCCOc1ccc(-c2ccc3c(c2)C=C(C(=O)Nc2ccc([S+]([O-])Cc4cncn4CCC)cc2)CCC2CCCN32)cc1 (centres unmarked) [Compound 5, (Ss)-9-[4-(2butoxyethoxy)phenyl]-N-[4-[[(1-propyl-1H-imidazol-5-yl)methyl]sulfinyl]phenyl]-1,2,3,3a,4,5-hexahydropyrrolo[1,2-a][1]benzazocine-6-carboxamide], the “Binding Inhibitory Ratio (%)” value was 96%.
With CCCCOCCOc1ccc(-c2cnc3c(c2)C=C(C(=O)Nc2ccc([S@@+]([O-])Cc4cncn4CCC)cc2)CCC2CCCN32)cc1 (some centres unmarked) [Compound 15, (Ss)-3-[4-(2-butoxyethoxy)phenyl]-N-[4-[[(1-propyl-1H-imidazol-5-yl)methyl]sulfinyl]phenyl]-7,8,8a,9,10,11-hexahydropyrido[3,2-g]pyrrolo[1,2-a]azocine-6-carboxamide] the “Binding Inhibitory Ratio (%)” value was 100%.
In the case of CCCCOCCOc1ccc(-c2cnc3c(c2)C=C(C(=O)Nc2ccc([S@@+]([O-])Cc4cncn4CCC)cc2)CC[C@@H]2CCCN32)cc1 [Compound 16, (8aR,Ss)-3-[4-(2-butoxyethoxy)phenyl]-N-[4-[[(1-propyl-1H-imidazol-5-yl)methyl]sulfinyl]phenyl]-7,8,8a,9,10,11-hexahydropyrido[3,2-g]pyrrolo[1,2-a]azocine-6-carboxamide], the “Binding Inhibitory Ratio (%)” value is reported as 94%.
With CCCCOCCOc1ccc(-c2ccc3c(c2)C=C(C(=O)Nc2ccc([S+]([O-])Cc4cncn4CCC)cc2)CCC2CCCCN32)cc1 (centres unmarked) [Compound 8, (Ss)-10-[4-(2-butoxyethoxy)phenyl]-N-[[4-[(1-propyl-1H-imidazol-5-yl)methyl]sulfinyl]phenyl]-2,3,4,4a,5,6-hexahydropyrido[1,2-a][1]benzazocine-6-carboxamide] the “Binding Inhibitory Ratio (%)” value was 97%.
